Source: EP4741383A1, “COMPOUND AND USE THEREOF AS ANTI-CANCER DRUG” (Tyligand Bioscience (Shanghai) Limited, priority 2023, dated 2025)

How the values were obtained:
[1] = molecular target: T1, SHP2 enzyme (catalytic domain, amino acid sequence 224-528) (Homo sapiens, UniProt Q06124); experiment: SHP2 enzyme inhibition assay (DiFMUP substrate, fluorescence); type: biochemical; settings: for IC50: SHP2 catalytic domain, DiFMUP substrate, 30 min pre-incubation, read-out: S HP2 I C50; for SHP2 IC50 times lower than control compound 11a-1: relative to 11a-1, IC50 = 0.108 µM
T1 construct: purchased GenScript
T1 sequence (Q06124 224-528): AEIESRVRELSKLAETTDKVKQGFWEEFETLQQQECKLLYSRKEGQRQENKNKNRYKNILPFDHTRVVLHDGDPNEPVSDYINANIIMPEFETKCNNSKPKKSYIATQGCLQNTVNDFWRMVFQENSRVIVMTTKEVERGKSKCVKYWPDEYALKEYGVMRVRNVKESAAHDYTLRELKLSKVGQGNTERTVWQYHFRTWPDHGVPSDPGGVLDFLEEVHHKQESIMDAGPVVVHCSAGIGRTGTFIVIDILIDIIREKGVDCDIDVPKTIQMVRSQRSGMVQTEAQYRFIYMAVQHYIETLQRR
Method: This experiment evaluates the inhibitory effect of the test compounds on SHP2 enzyme activity by detecting the reaction between the human recombinant protein SHP2 enzyme and the substrate.
The stock solutions of the reaction buffer components were thawed and mixed homogeneously at room temperature, to prepare the reaction buffer (55 mM HEPES pH = 7.2 (Sigma, Cat. No. #PHR1428), 100 mM NaCl (Beyotime, Cat. No. #ST374, 5 M solution), 0.5 mM EDTA (Beyotime, Cat. No. #ST066), 1 mM DL-Dithiothreitol (DTT) (Sigma, Cat. No. #D9779), 0.002% BSA (Solarbio, Cat. No. #A8010), 0.001% Brij35 (Brij® L23 solution (Brij35) (Sigma, Cat. No. #B4184)). The SHP2 enzyme (catalytic domain, amino acid sequence 224-528, expressed and purified by GenScript) was thawed slowly on ice. 1 µL of this solution (1.37 mg/mL) was added to 386 µL of the reaction buffer to dilute it to 100 nM. Then, 120 µL of the 100 nM SHP2 enzyme solution was added to 2880 µL of reaction buffer to prepare a 4 nM SHP2 enzyme working solution. The test compounds and the specific inhibitor of SHP2 (11a-1, used as a positive control, Zeng, L. et al., J. Med. Chem. 2014, 57, 6594-6609) were prepared as 10 mM DMSO solutions. 10 µL of the 10 mM compound solution was mixed with 20 µL of DMSO solution, and then serially diluted 3-fold, resulting in 10 concentrations. 1 µL of the serially diluted solution was mixed with 99 µL of reaction buffer to obtain a 10-fold diluted compound working solution.
A 96-well black half-area microplate (Greiner, catalog #675076) was used. 25 µL of 4 nM SHP2 enzyme working solution and 5 µL of 10x compound working solution were added to each well and incubated at room temperature for 30 minutes. 15 µL of DiFMUP substrate (Thermo Fisher Scientific, catalog #D6567) was added to 2985 µL of reaction buffer to prepare a 50 µM substrate working solution. After incubation of the compounds and SHP2 enzyme, 20 µL of the 50 µM substrate working solution was added to each well and incubated at room temperature for 5 minutes. The plate was then read on a multi-mode microplate reader (BioTek, Synergy H1) at 340 nm/450 nm fluorescence.
Data were analyzed using GraphPad Prism 9.0 software. A non-linear S-curve regression dose-response-inhibition equation was used to fit the data and generate the dose-response curve, from which the IC50 value was calculated. [formula]

[2] = system: KYSE520; experiment: CellTiter-Glo cell proliferation inhibition, KYSE520; type: cell-based, human; settings: Homo sapiens, KYSE-520; KYSE520 cells, 120 hours, CellTiter-Glo
Text: In this study, the CellTiter-Glo® Luminescent Cell Viability Assay kit from Promega was used to evaluate the inhibitory effects of the disclosed compounds on the proliferation of cell lines KYSE520 (a human esophageal squamous cell carcinoma cell line dependent on SHP2 for growth), MeWo (a human malignant melanoma cell line), and MV4-11 (an RTK-mutant human acute monocytic leukemia cell line).
KYSE520 cells (Nanjing Kebaio Biotechnology Co., Ltd., Catalog #CBP60658) were thawed by rapidly shaking the cryovial in a 37 °C water bath to thaw within 1 minute. The thawed cell suspension was mixed homogeneously with RPMI 1640 medium (HyClone, Catalog #SH30027.01) containing 10% FBS (ExCell, Catalog #FND500), centrifuged at 1000 rpm for 5 minutes, and the supernatant was discarded. The cell pellet was resuspended in 5 mL of complete culture medium (RPMI 1640 medium containing 10% FBS) and placed in a cell culture flask with 25 cm^2 of bottom area, then cultured in a cell culture incubator at 37 °C, 95% humidity, and 5% CO2. Cell passaging was performed when the cell confluence reached approximately 80%. During cell passaging, the old culture medium was discarded, the cells were washed once with DPBS (Thermo Fisher, Catalog #14190-144), and 1 mL of trypsin (Thermo Fisher, Catalog #25200072) was added to digest the cells. When the cells dispersed into single cells and detached from the bottom of the culture flask, 3 mL of fresh complete culture medium was added to stop the digestion. After gently pipetting the cell suspension, 1/5 of the cell suspension was retained, 5 mL of fresh complete culture medium was added, and after mixing, the cells were placed in a cell culture flask for further culture. Cell plating was performed when the cell confluence again reached approximately 80%. During cell plating, following the cell passaging method, 1/5 of the cell suspension was retained for continued culture, and the remaining 4/5 of the cell suspension was placed in a 15 mL centrifuge tube. Cell viability was determined using the trypan blue exclusion method to ensure that cell viability was above 90%. A cell suspension with a density of 2.22 × 10^4 cells/mL was prepared using complete culture medium, and 135 µL of the cell suspension was added to a 96-well transparent flat-bottom black-walled cell culture plate (Greiner, Catalog #655090), resulting in a cell density of 3000 viable cells per well. A control group containing only complete culture medium without cells and compounds (i.e., culture medium control) and a control group containing cells but no compound (i.e., cell control) were set up. The cell plates were incubated overnight in a cell culture incubator. First, a 10 mM stock solution of the compound (Example compound and positive control compound 11a-1) in DMSO (Damas-beta, catalog #75927R) was serially diluted 3-fold to the 9th concentration, and a 10th concentration containing only DMSO (without compound) was also prepared as a control. Then, the DMSO solutions containing different concentrations of the compound were diluted 100-fold with complete culture medium, resulting in a 1% DMSO concentration in each solution. Finally, 15 µL of each solution was added to the corresponding wells of the cell culture plate, resulting in a starting compound concentration of 10 µM, with a 3-fold dilution between adjacent concentrations, and a final DMSO concentration of 0.1% in the cell culture plate. The cell plates were then incubated in the cell culture incubator for another 120 hours.
For endpoint detection, CellTiter-Glo reagent (Promega, catalog number #G7573, CellTiter-Glo® Luminescent Cell Viability Assay Kit) was melt and each cell plate was moved to room temperature for equilibration for 30 minutes. 75 µL (KYSE520 cells) or 50 µL (MeWo cells and MV 4-11 cells) of CellTiter-Glo was added to each well of the corresponding cell plate. The plates were shaken on a track-mounted shaker for 2 minutes to fully lyse the cells. […]

Compound	IC50 [1]	IC50 [2]	SHP2 IC50 times lower than control compound 11a-1 [1]
CCC(O)C1CCN(c2ccc(NC(=O)C(=O)Nc3ccc(-c4cc5cc(F)c(-c6nnn[nH]6)cc5n4C4CCC4)cc3)cc2)CC1 (stereo not drawn) [Example 31]	88 nM	0.116 µM	–
CC1(n2c(-c3ccc(NC(=O)C(=O)Nc4ccc(N5CCC6(CCC(CO)C6)CC5)cc4)cc3)cc3cc(F)c(-c4nnn[nH]4)cc32)CCC1 (stereo not drawn) [Example 107]	138 nM	0.101 µM	–
CC1(n2c(-c3ccc(NC(=O)C(=O)Nc4ccc(N5CC6(CCC(O)CC6)C5)cc4)cc3)cc3cc(F)c(-c4nnn[nH]4)cc32)CCC1 [Example 82]	30 nM	0.097 µM	3-4 times
O=C(Nc1ccc(-c2cc3cc(F)c(-c4nnn[nH]4)cc3n2C2CCC2)cc1)C(=O)Nc1ccc(N2CC3CC(CO)CC3C2)cc1 (stereo not drawn) [Example 119]	55 nM	0.105 µM	–
CC1(n2c(-c3ccc(NC(=O)C(=O)Nc4ccc(N5CC6COCC6C5)cc4)cc3)cc3cc(F)c(-c4nnn[nH]4)cc32)CCC1 (stereo not drawn) [Example 115]	36 nM	0.11 µM	3-4 times
